Source: patent US4849429A, “Certain 1,4-dihydro-2,6-dilower-alkyl-4-(mono-substituted pyridyl) useful for treating coronary artery or cerebral artery disease” (The Green Cross Corporation, priority 1985, dated 1989)
Counter-ions that a name gives are not always drawn. Like-named read-outs stand apart in the source and are kept apart here.

Assays:
[1] = Test 1: blood pressure depression effect, systolic pressure, indirect tail-cuff method, oral; type: in vivo, Male, spontaneously hypertension-developing rats; conditions: for Systolic blood pressure (mmHg) After 1 hr / Systolic blood pressure (mmHg) After 4 hrs / Systolic blood pressure (mmHg) After 7 hrs: 25 mg/kg oral, average value; for Systolic blood pressure (mmHg) After 1 hr: 1 hr after administration; for Systolic blood pressure (mmHg) After 4 hrs: 4 hrs after administration; for Systolic blood pressure (mmHg) After 7 hrs: 7 hrs after administration
Description: Blood pressure depression effect
(§1) Male, spontaneously hypertension-developing rats of ages of 10 to 11 weeks (in groups of 3 to 5 animals) were used in the test. For blood pressure determination, systolic pressure was measured without anesthesia by an indirect tail-cuff method using a sphygmomanometer (PE-300, Narco Bio-System).
The compound to be tested was orally administered (at a dose of 25 mg/kg in terms of the active compound) as a 10% HCO-60 (polyoxyethylene hardened castor oil) suspension. Blood pressure was determined 1, 4 and 7 hours after the administration.
Further, the blood pressure depression effect of the fumarate of the compound obtained in Example 28 described later was examined in the same manner as described above.

[2] = Test 2: blood pressure depression up to 24 hours and duration until 50% recovery, oral; type: in vivo, Male, spontaneously hypertension-developing rats; conditions: for response vs control in vivo at 25 mg/kg: Rattus norvegicus, percent based on that before administration (100); for Duration 50% recovery: duration until pressure recovered to 50% from the maximum depression value
Description: as §1

[3] = 1h after oral administration, read-out: Depression value (%) of blood pressure, 1h
[4] = 2h after oral administration, read-out: Depression value (%) of blood pressure, 2h
[5] = 4h after oral administration, read-out: Depression value (%) of blood pressure, 4h
[6] = 7h after oral administration, read-out: Depression value (%) of blood pressure, 7h
[7] = 24h after oral administration, read-out: Depression value (%) of blood pressure, 24h
[8] = maximum lowering, read-out: Depression value (%) of blood pressure, Max

Row | SMILES | time required for 50% recovery from maximum depression value (%) of blood pressure ([1]; same manner as Test 1, oral) | maximum depression value (%) of blood pressure from the value (100%) before administration ([1]; same manner as Test 1, oral, before administration = 100%) | response vs control in vivo at 25 mg/kg [2, 3] | response vs control in vivo at 25 mg/kg [2, 4] | response vs control in vivo at 25 mg/kg [2, 5] | response vs control in vivo at 25 mg/kg [2, 6] | response vs control in vivo at 25 mg/kg [2, 7] | response vs control in vivo at 25 mg/kg [2, 8] | Duration 50% recovery [2] | Systolic blood pressure (mmHg) After 1 hr [1] | Systolic blood pressure (mmHg) After 4 hrs [1] | Systolic blood pressure (mmHg) After 7 hrs [1]
1 | COC(=O)C1=C(C)NC(C)=C(C(=O)OCCN(C)Cc2ccccc2)C1c1cccnc1C(F)(F)F (stereo not drawn) [Example 28 fumarate] | 16.2 h | 67% |  |  |  |  |  |  |  |  |  | 
2 | COC(=O)C1=C(C)NC(C)=C(C(=O)OCCN(C)Cc2ccccc2)C1c1cccc(Br)n1 (stereo not drawn) [Example 3, 2,6-Dimethyl-4-(6-bromo-2-pyridyl)-1,4-dihydropyridine-3,5-dicarboxylicacid 3-β-(N-benzyl-methylamino)ethyl ester 5-methyl ester] |  |  | 63% | 72% | 86% | 83% | 99% | 63% | 3.5 h | 126 mmHg | 143 mmHg | 161 mmHg
3 | COC(=O)C1=C(C)NC(C)=C(C(=O)OCCN(C)Cc2ccccc2)C1c1ccnc(C(F)(F)F)c1 (stereo not drawn) [Example 6, 2,6-Dimethyl-4-(2-trifluoromethyl-4-pyridyl)-1,4-dihydropyridine-3,5-dicarboxylic acid 3-β-(N-benzyl-N-methylamino)ethyl ester 5-methyl ester] |  |  |  |  |  |  |  |  |  | 139 mmHg | 145 mmHg | 145 mmHg
4 | COC(=O)C1=C(C)NC(C)=C(C(=O)OCCN(C)Cc2ccccc2)C1c1cccc(C#N)n1 (stereo not drawn) [Example 1, 2,6-Dimethyl-4-(6-cyano-2-pyridyl)-1,4-dihydropyridine-3,5-dicarboxylicacid 3-β-(N-benzyl-N-methylamino)ethyl ester 5-methyl ester] |  |  | 69% | 74% | 84% | 88% | 98% | 69% | 4.4 h | 115 mmHg | 137 mmHg | 148 mmHg
5 | COC(=O)C1=C(C)NC(C)=C(C(=O)OCCN(C)Cc2ccccc2)C1c1cccc(Cl)n1 (stereo not drawn) [(7), 2,6-Dimethyl-4-(6-chloro-2-pyridyl)-1,4-dihydropyridine-3,5-dicarboxylic a cid 3-β-(N-benzyl-N-methylamino)ethyl ester 5-methyl ester] |  |  | 83% | 84% | 87% | 93% | 101% | 83% | 6.0 h |  |  | 
6 | COC(=O)C1=C(C)NC(C)=C(C(=O)OCCN(C)Cc2ccccc2)C1c1cc([N+](=O)[O-])ccn1 (stereo not drawn) [Example 5, 2,6-Dimethyl-4-(4-nitro-2-pyridyl)-1,4-dihydropyridine-3,5-dicarboxylic acid 3-β-(N-benzyl-N-methylamino)ethyl ester 5-methyl ester] |  |  | 67% | 82% | 93% | 90% | 104% | 67% | 2.3 h | 156 mmHg | 135 mmHg | 140 mmHg
